The target of the experiment is Coagulation factor X (Homo sapiens, UniProt P00742). Description: Binding affinity for human factor Xa.
Coagulation factor X, sequence (P00742 41-179 limits assumed): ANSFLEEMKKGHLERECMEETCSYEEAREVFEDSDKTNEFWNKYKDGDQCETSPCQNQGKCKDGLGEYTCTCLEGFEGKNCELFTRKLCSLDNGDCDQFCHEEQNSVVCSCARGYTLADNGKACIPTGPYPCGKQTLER
Coagulation factor X, sequence (P00742 235-488 limits assumed): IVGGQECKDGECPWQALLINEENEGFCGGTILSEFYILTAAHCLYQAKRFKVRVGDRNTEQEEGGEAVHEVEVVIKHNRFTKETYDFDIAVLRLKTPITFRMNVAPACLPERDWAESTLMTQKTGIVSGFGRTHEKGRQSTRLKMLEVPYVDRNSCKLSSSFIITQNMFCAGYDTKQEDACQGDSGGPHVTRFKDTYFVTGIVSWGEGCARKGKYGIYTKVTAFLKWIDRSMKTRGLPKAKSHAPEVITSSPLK
With `Cc1ccc(C)c2c1cc(C(=O)NC1CCN(C(C)C)CC1)n2Cc1cc(-c2ccc(Cl)s2)on1`, the Ki turned out to be 1 nM. In the case of `CC(C)N1CCC(NC(=O)c2cc3c(Cl)cccc3n2Cc2cc(-c3ccc(Cl)s3)on2)CC1` it was 7 nM; in that of `Cc1c(C(=O)NC2CCN(C(C)C)CC2)n(Cc2cc(-c3ccc(Cl)s3)on2)c2ccccc12`, 3 nM. Consider `CC(C)N1CCC(NC(=O)c2c(C#N)c3ccccc3n2Cc2cc(-c3ccc(Cl)s3)on2)CC1`, for which the affinity corresponds to a Ki of 0.3 nM. In the case of `CC(C)N1CCC(NC(=O)c2cc3cccc(Cl)c3n2Cc2cc(-c3ccc(Cl)s3)on2)CC1` it was 0.7 nM. `Cc1cccc2c(C#N)c(C(=O)NC3CCN(C(C)C)CC3)n(CC(=O)Nc3ccc(Cl)cc3)c12` registered an inhibition constant (Ki) of 26 nM. For `Cc1cccc2c1cc(C(=O)NC1CCN(C(C)C)CC1)n2CC(=O)Nc1ccc(C(=N)N)cc1`, the inhibition constant Ki was determined as 25 nM. In the case of `CC(C)N1CCC(NC(=O)c2cc3cc(Br)ccc3n2Cc2cc(-c3ccc(Cl)s3)on2)CC1` it was 9 nM. For `Cc1ccc2cc(C(=O)NC3CCN(C(C)C)CC3)n(Cc3cc(-c4ccc(Cl)s4)on3)c2c1` the value was 18 nM; for `Cc1cccc2c(C#N)c(C(=O)NC3CCN(C(C)C)CC3)n(Cc3cc(-c4ccc(Cl)s4)on3)c12`, 0.07 nM; for `COc1cccc(Cn2c(C(=O)NC3CCN(C(C)C)CC3)c(C#N)c3cccc(C)c32)c1`, 406 nM. For `CC(C)N1CCC(NC(=O)c2cc3cc(F)ccc3n2Cc2cc(-c3ccc(Cl)s3)on2)CC1` the value was 3 nM.

Molecule `CC(C)N1CCC(NC(=O)c2cc3cccc([N+](=O)[O-])c3n2Cc2cc(-c3cc(Cl)cs3)on2)CC1` yielded a Ki of 0.1 nM. In the case of `CC(C)N1CCC(NC(=O)c2c(C#N)c3cc(S(C)(=O)=O)ccc3n2Cc2cc(-c3ccc(Cl)s3)on2)CC1` it was 7 nM; in that of `Cc1cccc2cc(C(=O)NC3CCN(C(C)C)CC3)n(CC(=O)Nc3ccc(Cl)cc3)c12`, 3 nM.

For orientation: Ki means a measure of affinity in units of concentration, obtained from inhibition or displacement. Low readings indicate higher affinity, high ones lower affinity.

The values above are taken from ChEMBL document CHEMBL1144400 (J Med Chem, 2005).
